For 19 molecules, GI50 and IC50 results are on record in US20230312577A1, “DUAL KINASE-BROMODOMAIN INHIBITORS” (MONASH UNIVERSITY, priority 2020, published 2023).

Broadly, the GI50 is the concentration giving 50% growth inhibition. A low value points to more potent growth inhibition. As a reminder, the IC50 is the point on the concentration scale where inhibition reaches its midpoint. High values mean lower potency, low ones higher potency.

Test [1] has as its system OPM2 cells. The test can be described thus: Cell proliferation assay (ViaLight, cellular ATP). In kind it is cell-based. To be noted: Homo sapiens, OPM-2, 120 h, 5 days, 5 μM to 1 nM. The procedure: OPM2 cells (1×10^3) were plated in a 96 well plate. Test compounds were added to cells at final concentrations ranging from 5 μM to 1 nM. They were incubated for 5 days before they were analysed using ViaLight luminescence-based proliferation assays which detect cellular ATP, as per the manufacturer's instructions. All samples were prepared in technical triplicates. Data analysis was performed in GraphPad Prism version 7.00 for Mac OS X, (GraphPad Software, San Diego California USA) in order to calculate the GI50.

In test [2] the target is T1, PI3K.
T1 construct: PI3K Enzyme Activity Assay IC50 (nM); other: 10 μM ATP, 180 μM phosphatidyl inositol, 60 min
The experiment in a line: PI3K enzyme activity assay (luminescence, ATP consumption, Kinase-Glo). In kind it is biochemical. As to conditions: 10 μM ATP, 180 μM phosphatidyl inositol, 60 min. The procedure:
PI3K activity was determined using a luminescence assay measuring ATP consumption as described previously (J.-A. Pinson, Z. Zheng, M. S. Miller, D. K. Chalmers, I. G. Jennings, P. E. Thompson, L-Aminoacyl-triazine derivatives are isoform-selective PI3Kβ inhibitors that target nonconserved Asp862 of PI3Kb, ACS Med. Chem. Lett. 4 (2013) 206-210). PI3K enzyme activity was determined in 25 μl of 20 mM HEPES pH 7.5, 5 mM MgCl2 with 180 μM phosphatidyl inositol and 10 μMATP. After a 60 min incubation at room temperature the reaction was stopped by the addition of Kinase-Glo (Promega) followed by a further 15 min incubation. Luminescence was then read using a Fluostar plate reader (BMGLabtech).
Inhibitors were diluted in 20% (v/v) DMSO at the indicated concentrations in order to generate a concentration versus inhibition of enzyme activity curve which was then analysed using GraphPad Prism version 8.00 for Windows, (GraphPad Software, San Diego California USA) in order to calculate the IC50. Standard deviations for the calculated IC50's are within 25% of the mean.

`CC(=O)N1c2ccc(-c3ccc(CNC(=O)c4nc5c(N6CCOCC6)nc(-c6cnc(N)nc6)cn5c4C)cc3)cc2CC[C@@H]1C` [Cpd 020, (S)-N-(4-(1-acetyl-2-methyl-1,2,3,4-tetrahydroquinolin-6-yl)benzyl)-6-(2-aminopyrimidin-5-yl)-3-methyl-8-morpholinoimidazo[1,2-a]pyrazine-2-carboxamide] gave a GI50 in test [1] of no more than 100 nM. Moreover, the IC50 in test [2] was no more than 100 nM.

`CC(=O)N1c2ccc(-c3ccc(C(=O)NCCNC(=O)c4nc5c(N6CCOCC6)nc(-c6cnc(N)nc6)cn5c4C)cc3)cc2CC[C@@H]1C` [Cpd 021, (S)-N-(2-(4-(1-Acetyl-2-methyl-1,2,3,4-tetrahydroquinolin-6-yl)benzamido)ethyl)-6-(2-aminopyrimidin-5-yl)-3-methyl-8-morpholinoimidazo[1,2-a]pyrazine-2-carboxamide]: the concentration for 50% growth inhibition (GI50) in test [1] is no more than 100 nM. In test [2], this molecule gave an IC50 of no more than 100 nM. The molecule `CC(=O)N1c2ccc(-c3ccc(C(=O)NCc4cc5nc(-c6cnc(N)nc6)nc(N6CCOCC6)c5s4)cc3)cc2CC[C@@H]1C` [Cpd 026, (S)-4-(1-Acetyl-2-methyl-1,2,3,4-tetrahydroquinolin-6-yl)-N-((2-(2-aminopyrimidin-5-yl)-4-morpholinothieno[3,2-d]pyrimidin-6-yl)methyl)benzamide] had a GI50 in test [1] of no more than 100 nM. For the same molecule, the concentration for half-maximal inhibition (IC50) in test [2] was 100 to 500 nM. For the molecule `CC(=O)N1c2ccc(-c3ccc(CC(=O)NCc4cc5nc(-c6cnc(N)nc6)nc(N6CCOCC6)c5s4)cc3)cc2CC[C@@H]1C` [Cpd 027, (S)-2-(4-(1-Acetyl-2-methyl-1,2,3,4-tetrahydroquinolin-6-yl)phenyl)-N-((2-(2-aminopy-rimidin-5-yl)-4-morpholinothieno[3,2-d]pyrimidin-6-yl)methyl)acetamide], the GI50 in test [1] fell in the range of 100 to 500 nM. The IC50 in test [2] is no more than 100 nM. The molecule `CC(=O)N1c2ccc(-c3ccc(C(=O)N4CCN(Cc5cc6nc(-c7cnc(N)nc7)nc(N7CCOCC7)c6s5)CC4)cc3)cc2CC[C@@H]1C` [Cpd 028, (S)-1-(6-(4-(4-((2-(2-Aminopyrimidin-5-yl)-4-morpholinothieno[3,2-d]pyrimidin-6-yl)methyl)piperazine-1-carbonyl)phenyl)-2-methyl-3,4-dihydroquinolin-1(2H)-yl)ethan-1-one] displayed a 50% growth inhibitory concentration (GI50) in test [1] of 100 to 500 nM. The molecule also registered an IC50 in test [2] of 100 to 500 nM.

Consider `CC(=O)N1c2ccc(-c3ccc(CN4CCN(Cc5cc6nc(-c7cnc(N)nc7)nc(N7CCOCC7)c6s5)CC4)cc3)cc2CC[C@@H]1C` [Cpd 029, (S)-1-(6-(4-((4-((2-(2-Aminopyrimidin-5-yl)-4-morpholinothieno[3,2-d]pyrimidin-6-yl)methyl)piperazin-1-yl)methyl)phenyl)-2-methyl-3,4-dihydroquinolin-1(2H)-yl)ethan-1-one], for which the GI50 in test [1] was 100 to 500 nM. The same molecule displayed an IC50 in test [2] of 100 to 500 nM. In test [1], `CC(=O)N1c2ccc(-c3ccc(CNC(=O)c4cc5nc(-c6cnc(N)nc6)nc(N6CCOCC6)c5s4)cc3)cc2CC[C@@H]1C` [Cpd 030, (S)-N-(4-(1-acetyl-2-methyl-1,2,3,4-tetrahydroquinolin-6-yl)benzyl)-2-(2-aminopyrimidin-5-yl)-4-morpholinothieno[3,2-d]pyrimidine-6-carboxamide] displayed a GI50 of no more than 100 nM. The IC50 in test [2] is greater than 500 nM. The corresponding values for `CC(=O)N1c2ccc(-c3ccc(C(=O)NCCNC(=O)c4cc5nc(-c6cnc(N)nc6)nc(N6CCOCC6)c5s4)cc3)cc2CC[C@@H]1C` [Cpd 031, (S)-N-(2-(4-(1-Acetyl-2-methyl-1,2,3,4-tetrahydroquinolin-6-yl)benzamido)ethyl)-2-(2-aminopyrimidin-5-yl)-4-morpholinothieno[3,2-d]pyrimidine-6-carboxamide] are no more than 100 nM and 100 to 500 nM. In the same order, the values of `CC(=O)N1c2ccc(-c3ccc(CNC(=O)c4sc5c(N6CCOCC6)nc(-c6cnc(N)nc6)nc5c4C)cc3)cc2CC[C@@H]1C` [Cpd 032, (S)-N-(4-(1-acetyl-2-methyl-1,2,3,4-tetrahydroquinolin-6-yl)benzyl)-2-(2-aminopyrimidin-5-yl)-7-methyl-4-morpholinothieno[3,2-d]pyrimidine-6-carboxamide] are no more than 100 nM and greater than 500 nM.

`CC(=O)N1c2ccc(-c3ccc(C(=O)NCCNC(=O)c4sc5c(N6CCOCC6)nc(-c6cnc(N)nc6)nc5c4C)cc3)cc2CC[C@@H]1C` [Cpd 033, (S)-N-(2-(4-(1-Acetyl-2-methyl-1,2,3,4-tetrahydroquinolin-6-yl)benzamido)ethyl)-2-(2-aminopyrimidin-5-yl)-7-methyl-4-morpholinothieno[3,2-d]pyrimidine-6-carboxamide] showed a GI50 in test [1] of no more than 100 nM. The IC50 in test [2] is no more than 100 nM.

As to `CC(=O)N1c2ccc(-c3ccc(CNC(=O)c4cc5c(N6CCOCC6)nc(-c6cnc(N)nc6)cn5n4)cc3)cc2CC[C@@H]1C` [Cpd 067, (S)-N-(4-(1-Acetyl-2-methyl-1,2,3,4-tetrahydroquinolin-6-yl)benzyl)-6-(2-aminopyrimidin-5-yl)-4-morpholinopyrazolo[1,5-a]pyrazine-2-carboxamide], the GI50 in test [1] was no more than 100 nM. The same measure, in the same setting: the figure for `CC(=O)N1c2ccc(-c3ccc(CNC(=O)c4cc5c(N6CCOCC6)nc(-c6cnc(N)nc6)c(Cl)n5n4)cc3)cc2CC[C@@H]1C` [Cpd 068, (S)-N-(4-(1-Acetyl-2-methyl-1,2,3,4-tetrahydroquinolin-6-yl)benzyl)-6-(2-aminopyrimidin-5-yl)-7-chloro-4-morpholinopyrazolo[1,5-a]pyrazine-2-carboxamide] is no more than 100 nM; for `CC(=O)N1c2ccc(-c3ccc(CNC(=O)c4cc5c(N6CCOCC6)nc(-c6cnc(N)nc6)cn5c4)cc3)cc2CC[C@@H]1C` [Cpd 069, (S)-N-(4-(1-Acetyl-2-methyl-1,2,3,4-tetrahydroquinolin-6-yl)benzyl)-3-(2-aminopyrimidin-5-yl)-1-morpholinopyrrolo[1,2-a]pyrazine-7-carboxamide] it is no more than 100 nM; for `CC(=O)N1c2ccc(-c3ccc(CNC(=O)c4cn5c(N6CCOCC6)nc(-c6cnc(N)nc6)cc5n4)cc3)cc2CC[C@@H]1C` [Cpd 070, (S)-N-(4-(1-Acetyl-2-methyl-1,2,3,4-tetrahydroquinolin-6-yl)benzyl)-7-(2-aminopyrimidin-5-yl)-5-morpholinoimidazo[1,2-c]pyrimidine-2-carboxamide] it is no more than 100 nM. Still for that read-out and setting: the figure for `CC(=O)N1c2ccc(-c3ccc(CNC(=O)c4nc5c(N6CCOCC6)nc(-c6cnc(N)nc6)nc5n4C)cc3)cc2CC[C@@H]1C` [Cpd 071, (S)-N-(4-(1-Acetyl-2-methyl-1,2,3,4-tetrahydroquinolin-6-yl)benzyl)-2-(2-aminopyrimidin-5-yl)-9-methyl-6-morpholino-9H-purine-8-carboxamide] is no more than 100 nM. `CC(=O)N1c2ccc(-c3ccc(CNC(=O)c4nc5c(N6CCOCC6)nc(-c6cnc(N)nc6)cn5n4)cc3)cc2CC[C@@H]1C` [Cpd 072, (S)-N-(4-(1-Acetyl-2-methyl-1,2,3,4-tetrahydroquinolin-6-yl)benzyl)-6-(2-aminopyrimidin-5-yl)-8-morpholino-[1,2,4]triazolo[1,5-a]pyrazine-2-carboxamide]: in test [1], the GI50 is no more than 100 nM. Same read-out and setting: next, `CC(=O)N1c2ccc(-c3ccc(CNC(=O)c4nc5c(N6CCOCC6)cc(-c6cnc(N)nc6)cn5n4)cc3)cc2CC[C@@H]1C` [Cpd 073, (S)-N-(4-(1-Acetyl-2-methyl-1,2,3,4-tetrahydroquinolin-6-yl)benzyl)-6-(2-aminopyrimidin-5-yl)-8-morpholino-[1,2,4]triazolo[1,5-a]pyridine-2-carboxamide]: no more than 100 nM; `CC(=O)N1c2ccc(-c3ccc(CNC(=O)c4cn5cc(-c6cnc(N)nc6)cc(N6CCOCC6)c5n4)cc3)cc2CC[C@@H]1C` [Cpd 074, (S)-N-(4-(1-Acetyl-2-methyl-1,2,3,4-tetrahydroquinolin-6-yl)benzyl)-6-(2-aminopyrimidin-5-yl)-8-morpholinoimidazo[1,2-a]pyridine-2-carboxamide]: no more than 100 nM. In test [1], `CC(=O)N1c2ccc(-c3ccc(CNC(=O)c4cc5nc(-c6cnc(N)nc6)cc(N6CCOCC6)n5n4)cc3)cc2CC[C@@H]1C` [Cpd 075, (S)-N-(4-(1-Acetyl-2-methyl-1,2,3,4-tetrahydroquinolin-6-yl)benzyl)-5-(2-aminopyrimidin-5-yl)-7-morpholinopyrazolo[1,5-a]pyrimidine-2-carboxamide] gave a GI50 of no more than 100 nM.
